{"source": "patent US20080153896A1", "about": "“Polymorphic Forms of an HMG-CoA Reductase Inhibitor and Uses Thereof” (priority 2006, published 2008)", "assay": "Stability (integrity) testing of amorphous and polymorphic form under storage conditions, RP-HPLC", "format": "physicochemical", "set-up": "key to Impurity RRT 0.738 / Impurity RRT 0.949 / Impurity RRT 1.050 / Impurity RRT 1.550 / Impurity RRT 0.136 / Impurity RRT 0.720 / Impurity RRT 0.706 / Impurity RRT 1.18 / Impurity RRT 1.826: % of total UV absorption (HPLC peak area); Impurity RRT 1.104 / Impurity RRT 1.698: unit not given beside the values", "conditions": "for Total: in %", "experimental": "The integrity of the different forms of the (3R, 5R)-7-[2-(4-fluorophenyl)-5-isopropyl-3-phenyl-4-[(4-hydroxymethylphenylamino)carbonyl]-pyrrol-1-yl]-3,5-dihydroxy-heptanoic acid, hemi calcium salt, was tested under different atmospheric conditions to determine the stability of the amorphous and polymorphic form of the drug in various storage environments. Reversed Phase-HPLC (RP-HPLC) was used to separate (3R, 5R)-7-[2-(4-fluorophenyl)-5-isopropyl-3-phenyl-4-[(4-hydroxymethylphenylamino)carbonyl]-pyrrol-1-yl]-3,5-dihydroxy-heptanoic acid, hemi calcium salt, from smaller molecules representing breakdown products as well as oxidized drug. The relative amount of the drug was reported as a percent of total absorption by UV. The total peak area of all UV absorption impurities was used to define total impurity of the drug. Impurities are defined by their relative retention time (RRT) compared to native drug. Samples were injected onto a C18 column using standard temperature, gradient and run-time conditions.\nThe results of this integrity testing for the amorphous form of (3R, 5R)-7-[2-(4-fluorophenyl)-5-isopropyl-3-phenyl-4-[(4-hydroxymethylphenylamino)carbonyl]-pyrrol-1-yl]-3,5-dihydroxy-heptanoic acid, hemi calcium salt, is shown in Table 5.\nThree separate batches of polymorphic Form I of (3R, 5R)-7-[2-(4-fluorophenyl)-5-isopropyl-3-phenyl-4-[(4-hydroxymethylphenylamino)carbonyl]-pyrrol-1-yl]-3,5-dihydroxy-heptanoic acid, hemi calcium salt, were prepared and tested under the same atmospheric conditions described for the amorphous form.", "data": [{"smiles": "CC(C)c1c(C(=O)Nc2ccc(CO)cc2)c(-c2ccccc2)c(-c2ccc(F)cc2)n1CC[C@@H](O)C[C@@H](O)CC(=O)[O-].CC(C)c1c(C(=O)Nc2ccc(CO)cc2)c(-c2ccccc2)c(-c2ccc(F)cc2)n1CC[C@@H](O)C[C@@H](O)CC(=O)[O-].[Ca+2]", "note": "[PP00204, (3R, 5R)-7-[2-(4-fluorophenyl)-5-isopropyl-3-phenyl-4-[(4-hydroxymethylphenylamino)carbonyl]-pyrrol-1-yl]-3,5-dihydroxy-heptanoic acid, hemi calcium salt]", "values": [{"measurement": "Impurity RRT 0.991", "setting": "30° C./65% RH 1 month", "result": 0.018}, {"measurement": "Impurity RRT 1.024", "setting": "30° C./65% RH 1 month", "result": 0.464}, {"measurement": "Impurity RRT 1.041", "setting": "30° C./65% RH 1 month", "result": 0.587}, {"measurement": "Impurity RRT 1.074", "setting": "30° C./65% RH 1 month", "result": 0.021}, {"measurement": "Total", "setting": "30° C./65% RH 1 month", "result": 1.956}, {"measurement": "Impurity RRT 0.885", "setting": "30° C./65% RH 2 months", "result": 0.154}, {"measurement": "Impurity RRT 0.892", "setting": "30° C./65% RH 2 months", "result": 0.119}, {"measurement": "Impurity RRT 0.952", "setting": "30° C./65% RH 2 months", "result": 0.050}, {"measurement": "Impurity RRT 0.965", "setting": "30° C./65% RH 2 months", "result": 0.505}, {"measurement": "Impurity RRT 0.974", "setting": "30° C./65% RH 2 months", "result": 0.042}, {"measurement": "Impurity RRT 0.991", "setting": "30° C./65% RH 2 months", "result": 0.022}, {"measurement": "Impurity RRT 1.024", "setting": "30° C./65% RH 2 months", "result": 0.524}, {"measurement": "Impurity RRT 1.041", "setting": "30° C./65% RH 2 months", "result": 0.611}, {"measurement": "Total", "setting": "30° C./65% RH 2 months", "result": 2.027}, {"measurement": "Impurity RRT 0.832", "setting": "30° C./65% RH 3 months", "result": 0.046}, {"measurement": "Impurity RRT 0.892", "setting": "30° C./65% RH 3 months", "result": 0.184}, {"measurement": "Impurity RRT 0.965", "setting": "30° C./65% RH 3 months", "result": 0.542}, {"measurement": "Impurity RRT 0.981", "setting": "30° C./65% RH 3 months", "result": 0.057}, {"measurement": "Impurity RRT 1.024", "setting": "30° C./65% RH 3 months", "result": 0.516}, {"measurement": "Impurity RRT 1.041", "setting": "30° C./65% RH 3 months", "result": 0.638}, {"measurement": "Total", "setting": "30° C./65% RH 3 months", "result": 1.983}, {"measurement": "Impurity RRT 0.731", "setting": "40° C./75% RH 1 month", "result": 0.039}, {"measurement": "Impurity RRT 0.832", "setting": "40° C./75% RH 1 month", "result": 0.034}, {"measurement": "Impurity RRT 0.876", "setting": "40° C./75% RH 1 month", "result": 0.125}, {"measurement": "Impurity RRT 0.892", "setting": "40° C./75% RH 1 month", "result": 0.055}, {"measurement": "Impurity RRT 0.965", "setting": "40° C./75% RH 1 month", "result": 0.526}, {"measurement": "Impurity RRT 0.974", "setting": "40° C./75% RH 1 month", "result": 0.071}, {"measurement": "Impurity RRT 0.991", "setting": "40° C./75% RH 1 month", "result": 0.024}, {"measurement": "Impurity RRT 1.024", "setting": "40° C./75% RH 1 month", "result": 0.464}, {"measurement": "Impurity RRT 1.041", "setting": "40° C./75% RH 1 month", "result": 0.565}, {"measurement": "Impurity RRT 1.074", "setting": "40° C./75% RH 1 month", "result": 0.032}, {"measurement": "Total", "setting": "40° C./75% RH 1 month", "result": 1.955}, {"measurement": "Impurity RRT 0.738", "setting": "40° C./75% RH 2 months", "result": 0.042}, {"measurement": "Impurity RRT 0.885", "setting": "40° C./75% RH 2 months", "result": 0.159}, {"measurement": "Impurity RRT 0.892", "setting": "40° C./75% RH 2 months", "result": 0.127}, {"measurement": "Impurity RRT 0.949", "setting": "40° C./75% RH 2 months", "result": 0.063}, {"measurement": "Impurity RRT 0.965", "setting": "40° C./75% RH 2 months", "result": 0.547}, {"measurement": "Impurity RRT 0.991", "setting": "40° C./75% RH 2 months", "result": 0.027}, {"measurement": "Impurity RRT 1.024", "setting": "40° C./75% RH 2 months", "result": 0.543}, {"measurement": "Impurity RRT 1.041", "setting": "40° C./75% RH 2 months", "result": 0.622}, {"measurement": "Impurity RRT 1.074", "setting": "40° C./75% RH 2 months", "result": 0.077}, {"measurement": "Total", "setting": "40° C./75% RH 2 months", "result": 2.207}, {"measurement": "Impurity RRT 0.892", "setting": "40° C./75% RH 3 months", "result": 0.189}, {"measurement": "Impurity RRT 0.965", "setting": "40° C./75% RH 3 months", "result": 0.548}, {"measurement": "Impurity RRT 0.981", "setting": "40° C./75% RH 3 months", "result": 0.065}, {"measurement": "Impurity RRT 1.024", "setting": "40° C./75% RH 3 months", "result": 0.515}, {"measurement": "Impurity RRT 1.041", "setting": "40° C./75% RH 3 months", "result": 0.632}, {"measurement": "Impurity RRT 1.104", "setting": "40° C./75% RH 3 months", "result": 0.074}, {"measurement": "Total", "setting": "40° C./75% RH 3 months", "result": 2.023}, {"measurement": "Impurity RRT 0.731", "setting": "40° C./75% RH 6 months", "result": 0.031}, {"measurement": "Impurity RRT 0.832", "setting": "40° C./75% RH 6 months", "result": 0.031}, {"measurement": "Impurity RRT 0.876", "setting": "40° C./75% RH 6 months", "result": 0.152}, {"measurement": "Impurity RRT 0.892", "setting": "40° C./75% RH 6 months", "result": 0.19}, {"measurement": "Impurity RRT 0.952", "setting": "40° C./75% RH 6 months", "result": 0.022}, {"measurement": "Impurity RRT 0.965", "setting": "40° C./75% RH 6 months", "result": 0.497}, {"measurement": "Impurity RRT 1.024", "setting": "40° C./75% RH 6 months", "result": 0.460}, {"measurement": "Impurity RRT 1.041", "setting": "40° C./75% RH 6 months", "result": 0.573}, {"measurement": "Impurity RRT 1.050", "setting": "40° C./75% RH 6 months", "result": 0.094}, {"measurement": "Impurity RRT 1.074", "setting": "40° C./75% RH 6 months", "result": 0.025}, {"measurement": "Impurity RRT 1.104", "setting": "40° C./75% RH 6 months", "result": 0.037}, {"measurement": "Total", "setting": "40° C./75% RH 6 months", "result": 2.112}, {"measurement": "Impurity RRT 0.876", "setting": "Initial", "result": 0.146}, {"measurement": "Impurity RRT 0.965", "setting": "Initial", "result": 0.560}, {"measurement": "Impurity RRT 0.991", "setting": "Initial", "result": 0.022}, {"measurement": "Impurity RRT 1.024", "setting": "Initial", "result": 0.464}, {"measurement": "Impurity RRT 1.041", "setting": "Initial", "result": 0.581}, {"measurement": "Total", "setting": "Initial", "result": 1.703}]}]}
